# Patent US9908912B2, “Triclosan derivatives and uses thereof” (priority 2012, dated 2018)
# Key:
# [1] = test system: Crono. sakazakii ATCC 29544; test: MIC in Nutrient Broth No. 2; type: cell-based, Cronobacter sakazakii; conditions: Nutrient Broth No. 2
# Protocol: (§1) Bacteria species as indicated in Table 1 were incubated for approximately 24 hours at 37° C.
# (§2) The tests were repeated with the addition of inducers. Methyl glycoside was the main inducer used, but other suitable inducers include isopropyl-β-D-thiogalactopyranoside, p-nitrophenyl-α-L-arabinopyranoside and p-nitrophenyl-β-D-xylopyranoside. Concentration of inducer in all cases was 100 μg/ml.
# S. aureus = test: MIC in Nutrient Agar; type: cell-based, Staphylococcus aureus; conditions: 8 strains; Nutrient Agar containing 0.1 μg/ml of inducer; 37° C., 24 hours
# Protocol: (§3) The triclosan-glycosides were added to Nutrient Agar (Oxoid CM0003; Thermofisher Scientific) and organisms were transferred onto the plates surface using a multi-point inoculation device (Oxoid Cathra, Thermofisher Scientific). The latter is essentially a metal plate containing a number of needles. Each needle tip (usually 36 per plate) dips into an organism suspension (in phosphate buffered saline; PBS) and the needles are then moved over the agar plate and lowered onto its surface. In this way the growth of colonies of up to 36 different organisms can be observed on one plate.
# (§4) Nutrient Agar No. 2 was prepared according to the manufacturers instructions, autoclaved and cooled to 50° C. Test compounds were then added as filter sterilised solutions (50:50 deionised water:ethanol), to give final concentrations from 256 μg/ml to 0 μg/ml in doubling dilutions. […] The mixtures were swirled then four plates (25 ml molten agar) were poured for each concentration. Plates were dried in a laminar flow cabinet then inoculated with overnight cultures of organisms that had been decimally diluted twice in sterile saline solution (approximately 10^7 cfu/ml) using a multi-point inoculator. Plates were then incubated at 37° C. for 24 hours. MICs were determined as the concentration at which no growth was observed.
# Str. pyogenes = test: MIC in Nutrient Agar; type: cell-based, Streptococcus pyogenes; conditions: Nutrient Agar containing 0.1 μg/ml of inducer; 37° C., 24 hours
# Protocol: as §3, §4
# [2] = test system: Staph. haemolyticus OCC 2223; test: MIC in Nutrient Broth No. 2; type: cell-based, Staphylococcus haemolyticus; conditions: Nutrient Broth No. 2
# Protocol: as §1, §2
# Kleb. pneumoniae = test: MIC in Nutrient Agar; type: cell-based, Klebsiella pneumoniae; conditions: Nutrient Agar containing 0.1 μg/ml of inducer; 37° C., 24 hours
# Protocol: as §3, §4
# Cr. sakazakii = test: MIC in Nutrient Agar; type: cell-based, Cronobacter sakazakii; conditions: Nutrient Agar containing 0.1 μg/ml of inducer; 37° C., 24 hours
# Protocol: as §3, §4
# Str. agalactiae = test: MIC in Nutrient Agar; type: cell-based, Streptococcus agalactiae; conditions: Nutrient Agar containing 0.1 μg/ml of inducer; 37° C., 24 hours
# Protocol: as §3, §4
# S. haemolyticus = test: MIC in Nutrient Agar; type: cell-based, Staphylococcus haemolyticus; conditions: Nutrient Agar containing 0.1 μg/ml of inducer; 37° C., 24 hours
# Protocol: as §3, §4
# [3] = test system: Strep. agalactiae OCC 182; test: MIC in Nutrient Broth No. 2; type: cell-based, Streptococcus agalactiae; conditions: Nutrient Broth No. 2
# Protocol: as §1, §2
# [4] = test system: Kleb. aerogenes NCTC 88167; test: MIC in Nutrient Broth No. 2; type: cell-based, Klebsiella aerogenes; conditions: Nutrient Broth No. 2
# Protocol: as §1, §2
# Ent. cloacae = test: MIC in Nutrient Agar; type: cell-based, Enterobacter cloacae; conditions: Nutrient Agar containing 0.1 μg/ml of inducer; 37° C., 24 hours
# Protocol: as §3, §4
# S. epidermidis = test: MIC in Nutrient Agar; type: cell-based, Staphylococcus epidermidis; conditions: 3 strains; Nutrient Agar containing 0.1 μg/ml of inducer; 37° C., 24 hours
# Protocol: as §3, §4
# Aer. hydrophila = test: MIC in Nutrient Agar; type: cell-based, Aeromonas hydrophila; conditions: Nutrient Agar containing 0.1 μg/ml of inducer; 37° C., 24 hours
# Protocol: as §3, §4
# Ser. marcescens = test: MIC in Nutrient Agar; type: cell-based, Serratia marcescens; conditions: Nutrient Agar containing 0.1 μg/ml of inducer; 37° C., 24 hours
# Protocol: as §3, §4
# Ent. aerogenes = test: MIC in Nutrient Agar; type: cell-based, Enterobacter aerogenes; conditions: Nutrient Agar containing 0.1 μg/ml of inducer; 37° C., 24 hours
# Protocol: as §3, §4
# [5] = test system: Strep. pyogenes ATCC 19615; test: MIC in Nutrient Broth No. 2; type: cell-based, Streptococcus pyogenes; conditions: Nutrient Broth No. 2
# Protocol: as §1, §2
# Ent. faecalis = test: MIC in Nutrient Agar; type: cell-based, Enterococcus faecalis; conditions: Nutrient Agar containing 0.1 μg/ml of inducer; 37° C., 24 hours
# Protocol: as §3, §4
# Strep. viridans OCC 234 = test: MIC in Nutrient Broth No. 2; type: cell-based, Streptococcus viridans; conditions: Nutrient Broth No. 2
# Protocol: as §1, §2
# Staph. epidermidis = test: MIC in Nutrient Broth No. 2; type: cell-based, Staphylococcus epidermidis; conditions: 3 strains, Nutrient Broth No. 2
# Protocol: as §1, §2
# Ent. cloacae ATCC 13047 = test: MIC in Nutrient Broth No. 2; type: cell-based, Enterobacter cloacae; conditions: Nutrient Broth No. 2
# Protocol: as §1, §2
# [6] = test system: Strep. pneumoniae ATCC 6305; test: MIC in Nutrient Broth No. 2; type: cell-based, Streptococcus pneumoniae; conditions: Nutrient Broth No. 2
# Protocol: as §1, §2
# Staph. aureus = test: MIC in Nutrient Broth No. 2; type: cell-based, Staphylococcus aureus; conditions: 8 strains, Nutrient Broth No. 2
# Protocol: as §1, §2
# Kleb. aerogenes = test: MIC in Nutrient Agar; type: cell-based, Klebsiella aerogenes; conditions: Nutrient Agar containing 0.1 μg/ml of inducer; 37° C., 24 hours
# Protocol: as §3, §4
# Str. pneumoniae = test: MIC in Nutrient Agar; type: cell-based, Streptococcus pneumoniae; conditions: Nutrient Agar containing 0.1 μg/ml of inducer; 37° C., 24 hours
# Protocol: as §3, §4
# E. hermanii ATCC 33650 = test: MIC in Nutrient Broth No. 2; type: cell-based, Escherichia hermanii; conditions: Nutrient Broth No. 2
# Protocol: as §1, §2
# [7] = test system: Staph. saprophyticus ATCC 15305; test: MIC in Nutrient Broth No. 2; type: cell-based, Staphylococcus saprophyticus; conditions: Nutrient Broth No. 2
# Protocol: as §1, §2
# [8] = test system: Kleb. pneumoniae ATCC 10031; test: MIC in Nutrient Broth No. 2; type: cell-based, Klebsiella pneumoniae; conditions: Nutrient Broth No. 2
# Protocol: as §1, §2
# Ps. aeruginosa = test: MIC in Nutrient Agar; type: cell-based; conditions: Nutrient Agar containing 0.1 μg/ml of inducer; 37° C., 24 hours
# Protocol: as §3, §4
# Salmonella = test: MIC in Nutrient Agar; type: cell-based; conditions: 11 strains; Nutrient Agar containing 0.1 μg/ml of inducer; 37° C., 24 hours
# Protocol: as §3, §4
# Hafnia alvei = test: MIC in Nutrient Agar; type: cell-based; conditions: Nutrient Agar containing 0.1 μg/ml of inducer; 37° C., 24 hours
# Protocol: as §3, §4
# Bacillus cereus = test: MIC in Nutrient Agar; type: cell-based; conditions: Nutrient Agar containing 0.1 μg/ml of inducer; 37° C., 24 hours
# Protocol: as §3, §4
# Bacillus subtilis = test: MIC in Nutrient Agar; type: cell-based; conditions: Nutrient Agar containing 0.1 μg/ml of inducer; 37° C., 24 hours
# Protocol: as §3, §4
# Ent. faecium = test: MIC in Nutrient Agar; type: cell-based, Enterococcus faecium; conditions: Nutrient Agar containing 0.1 μg/ml of inducer; 37° C., 24 hours
# Protocol: as §3, §4
compound,measurement,setting,value
"OC[C@H]1O[C@H](Oc2cc(Cl)ccc2Oc2ccc(Cl)cc2Cl)[C@H](O)[C@@H](O)[C@@H]1O [α-D-Glucoside, triclosan-α-D-glucopyranoside]",MIC,[1]; with inducer 100 μg/ml,4 µg/mL
same,MIC,[1]; without inducer,8 µg/mL
same,MIC,S. aureus,0.25 to 1 µg/mL
same,MIC,Str. pyogenes,64 µg/mL
same,MIC,[2]; with inducer 100 μg/ml,1 µg/mL
same,MIC,[2]; without inducer,1 µg/mL
same,MIC,Kleb. pneumoniae,0.5 µg/mL
same,MIC,Cr. sakazakii,4 µg/mL
same,MIC,Str. agalactiae,128 µg/mL
same,MIC,S. haemolyticus,1 µg/mL
same,MIC,[3]; with inducer 100 μg/ml,128 µg/mL
same,MIC,[3]; without inducer,128 µg/mL
same,MIC,[4]; with inducer 100 μg/ml,4 µg/mL
same,MIC,[4]; without inducer,2 µg/mL
same,MIC,Ent. cloacae,1 µg/mL
same,MIC,S. epidermidis,0.5 to 1 µg/mL
same,MIC,Aer. hydrophila,128 µg/mL
same,MIC,Ser. marcescens,>256 µg/mL
same,MIC,Ent. aerogenes,4 µg/mL
same,MIC,[5]; with inducer 100 μg/ml,16 µg/mL
same,MIC,[5]; without inducer,32 µg/mL
same,MIC,Ent. faecalis,128 µg/mL
same,MIC,Strep. viridans OCC 234; with inducer 100 μg/ml,64 µg/mL
same,MIC,Strep. viridans OCC 234; without inducer,128 µg/mL
same,MIC,Staph. epidermidis; with inducer 100 μg/ml,1 µg/mL
same,MIC,Staph. epidermidis; without inducer,1 µg/mL
same,MIC,Ent. cloacae ATCC 13047; with inducer 100 μg/ml,1 µg/mL
same,MIC,Ent. cloacae ATCC 13047; without inducer,1 µg/mL
same,MIC,[6]; with inducer 100 μg/ml,16 µg/mL
same,MIC,[6]; without inducer,32 µg/mL
same,MIC,Staph. aureus; with inducer 100 μg/ml,1 µg/mL
same,MIC,Staph. aureus; without inducer,1 µg/mL
same,MIC,Kleb. aerogenes,2 µg/mL
same,MIC,Str. pneumoniae,32 µg/mL
same,MIC,E. hermanii ATCC 33650; with inducer 100 μg/ml,1 µg/mL
same,MIC,E. hermanii ATCC 33650; without inducer,1 µg/mL
same,MIC,[7]; with inducer 100 μg/ml,4 µg/mL
same,MIC,[7]; without inducer,4 µg/mL
same,MIC,[8]; with inducer 100 μg/ml,1 µg/mL
same,MIC,[8]; without inducer,1 µg/mL
same,MIC,Ps. aeruginosa,>256 µg/mL
same,MIC,Salmonella,1 to 4 µg/mL
same,MIC,Hafnia alvei,0.5 µg/mL
same,MIC,Bacillus cereus,64 µg/mL
same,MIC,Bacillus subtilis,16 µg/mL
same,MIC,Ent. faecium,128 µg/mL
